# Assay results published in patent publication US20090118263A1, “Novel Adenine Compound” (priority 2005, published 2009).
# Target: T1, human TLR7 (Homo sapiens, UniProt Q9NYK1)
# T1 construct: expressed in transfected cells; host or cells: HEK293 (hTLR7/seap-293), stably transfected with the TLR7 plasmid and the NF-kB-SEAP reporter plasmid
# T1 sequence (Q9NYK1 27-1049): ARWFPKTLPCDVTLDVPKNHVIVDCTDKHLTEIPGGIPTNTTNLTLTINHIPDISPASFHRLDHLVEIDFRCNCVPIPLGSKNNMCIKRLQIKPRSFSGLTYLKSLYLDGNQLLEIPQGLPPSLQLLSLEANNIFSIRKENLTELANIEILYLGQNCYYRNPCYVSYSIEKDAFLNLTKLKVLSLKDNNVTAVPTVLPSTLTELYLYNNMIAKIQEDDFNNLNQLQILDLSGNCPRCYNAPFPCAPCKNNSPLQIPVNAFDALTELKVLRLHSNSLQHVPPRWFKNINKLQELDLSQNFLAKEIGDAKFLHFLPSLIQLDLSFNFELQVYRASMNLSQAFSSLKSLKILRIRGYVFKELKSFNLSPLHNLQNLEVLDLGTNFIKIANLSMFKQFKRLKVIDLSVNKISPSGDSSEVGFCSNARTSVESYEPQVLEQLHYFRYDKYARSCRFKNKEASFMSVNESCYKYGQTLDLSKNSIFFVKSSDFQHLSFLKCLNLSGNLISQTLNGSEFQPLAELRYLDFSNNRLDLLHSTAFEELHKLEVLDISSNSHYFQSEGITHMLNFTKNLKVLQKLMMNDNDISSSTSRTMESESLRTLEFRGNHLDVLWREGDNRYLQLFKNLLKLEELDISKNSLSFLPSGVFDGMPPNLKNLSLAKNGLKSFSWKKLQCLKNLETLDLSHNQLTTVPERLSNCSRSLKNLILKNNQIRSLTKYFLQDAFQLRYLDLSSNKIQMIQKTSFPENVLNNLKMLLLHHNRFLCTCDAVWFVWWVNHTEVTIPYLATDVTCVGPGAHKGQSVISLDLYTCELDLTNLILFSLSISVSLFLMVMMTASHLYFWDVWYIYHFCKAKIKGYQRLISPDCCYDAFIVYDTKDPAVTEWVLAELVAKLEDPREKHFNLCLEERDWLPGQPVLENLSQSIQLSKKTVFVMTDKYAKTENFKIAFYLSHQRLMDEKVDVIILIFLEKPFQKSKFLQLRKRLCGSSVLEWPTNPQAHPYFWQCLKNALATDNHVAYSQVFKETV
# Test: Human TLR7 reporter assay (NF-kB-SEAP in HEK293 cells)
# Format: cell-based
# Conditions: HEK293 cells stably carrying human TLR7 plasmid and NF-kB-SEAP reporter plasmid; 20 hours culture; 1 nM-10 μM; absorbance 405 nm; read-out: Human TLR7 binding activity (EC50)
# Protocol: Human TLR7 Reporter Assay
# HEK293 cells in which human TLR7 or rat TLR7 plasmid and reporter plasmid (NF-kB-SEAP) are stably introduced are dispersed in DMEM broth (10% FBS, 1% NEAA, 10 ug/mL blastocidin S HCl, 100 ug/mL Zeocin), and were seeded to 96 well plate per 90 μl/well (hTLR7/seap-293:20000 cells/well, rTLR7/seap-293:25000 cells/well).
# Test compound (DMSO stock solution (2 μl) was diluted with the broth (200 μl) by 100 times) was added to the seeded cells to a 96 well plate (10 μl/well) (final concentration; 1 nM-10 μM, common ratio). After stirring by tapping side of the plate, the cells were cultured in a CO2 incubator for 20 hours. A substrate (50 μl/well) for reporter assay (substrate for SEAP, pNPP) was added to cells stimulated by test sample. Ten minutes after adding the substrate, the reaction quenching solution (4N NaOH) was added by 50 μl/well to cease enzymatic reaction. Sealing a top seal A on the plate, the absorbance was measured by a micro plate reader (405 nm).
row,SMILES,EC50 [nM]
1,"CCCCOc1nc(N)c2[nH]c(=O)n(Cc3ccc(OCCCN(C)Cc4cccc(CC(=O)OC)c4)cc3)c2n1 [Example 1, 2-Butoxy-7,8-dihydro-9-[(3-[{N-methyl-N-[3-(methoxycarbonylmethyl)benzyl]}amino]propoxy)benzyl]-8-oxoadenine]",26
2,"CCCCOc1nc(N)c2[nH]c(=O)n(Cc3ccc(OCCCNCc4cccc(CC(=O)OC)c4)cc3)c2n1 [Example 3, 2-Butoxy-7,8-dihydro-9-([3-{N-[3-(methoxycarbonylmethyl)benzyl]amino}propoxy]benzyl)-8-oxoadenine]",20.4
3,"CCCCOc1nc(N)c2[nH]c(=O)n(Cc3ccc(CN(CCCO)Cc4cccc(CC(=O)OC)c4)cc3)c2n1 [Example 5, 2-Butoxy-7,8-dihydro-9-(4-{N-(3-hydroxypropyl)-N-[3-(methoxycarbonylmethyl)benzyl]aminomethyl}benzyl)-8-oxoadenine]",40.8
4,"CCCCOc1nc(N)c2[nH]c(=O)n(Cc3ccc(CN(CCCN4CCOCC4)Cc4cccc(CC(=O)OC)c4)cc3)c2n1 [Example 7, 2-Butoxy-7,8-dihydro-9-(4-{N-[3-(methoxycarbonylmethyl)benzyl]-N-(3-morpholin-4-ylpropyl)aminomethyl}benzyl)-8-oxoadenine]",24.1
5,"CCCCOc1nc(N)c2[nH]c(=O)n(Cc3ccc(CN(CCCN4CCOCC4)Cc4cccc(CC(=O)O)c4)cc3)c2n1 [Example 8, 2-Butoxy-7,8-dihydro-9-(4-{N-[3-(hydroxycarbonylmethyl)benzyl]-N-(3-morpholin-4-ylpropyl)aminomethyl}benzyl)-8-oxoadenine]",253
6,"CCCCOc1nc(N)c2[nH]c(=O)n(Cc3ccc(CN(C)CCOc4cccc(CC(=O)OC)c4)cc3)c2n1 [Example 9, 2-Butoxy-7,8-dihydro-9-[4-(N-{2-[3-(methoxycarbonylmethyl)phenoxy]ethyl}-N-methylaminomethyl)benzyl]-8-oxoadenine]",28.3
7,"CCCCOc1nc(N)c2[nH]c(=O)n(Cc3ccc(CN(C)CCOc4cc(CC(=O)OC)ccc4OC)cc3)c2n1 [Example 11, 2-Butoxy-7,8-dihydro-9-[4-(N-{2-[2-methoxy-5-(methoxycarbonylmethyl)phenoxy]ethyl}-N-methylaminomethyl)benzyl]-8-oxoadenine]",21
8,"CCCCOc1nc(N)c2[nH]c(=O)n(Cc3ccc(OCCCCNCc4cccc(CC(=O)OC)c4)nc3)c2n1 [Example 12, 2-Butoxy-7,8-dihydro-9-{6-[4-(3-methoxycarbonylmethylbenzyl)aminobutoxy]pyridin-3-ylmethyl}-8-oxoadenine]",9.1
9,"CCCCOc1nc(N)c2[nH]c(=O)n(Cc3ccc(OCCCCN(C)Cc4cccc(CC(=O)OC)c4)nc3)c2n1 [Example 15, 2-Butoxy-7,8-dihydro-9-[6-(4-[{N-methyl-N-[3-(methoxycarbonylmethyl)benzyl]}amino]butoxy)pyridin-3-ylmethyl]-8-oxoadenine]",9.4
10,"CCCCOc1nc(N)c2[nH]c(=O)n(Cc3ccc(OCCCCN(C)Cc4cccc(CC(=O)O)c4)nc3)c2n1 [Example 16, 2-Butoxy-7,8-dihydro-9-[6-(4-[{N-[3-(carboxymethyl)benzyl]-N-methyl}amino]butoxy)pyridin-3-ylmethyl]-8-oxoadenine]",29.6
11,"CCCCOc1nc(N)c2[nH]c(=O)n(Cc3ccc(OCCCCN(CCCN4CCOCC4)Cc4cccc(CC(=O)OC)c4)nc3)c2n1 [Example 17, 2-Butoxy-7,8-dihydro-9-(6-[4-{[N-(3-methoxycarbonylmethylbenzyl)-N-(3-morpholinopropyl)]amino}butoxy]pyridin-3-ylmethyl)-8-oxoadenine]",20.7
12,"COCCOc1nc(N)c2[nH]c(=O)n(Cc3ccc(CN(C)CCOc4cccc(CC(=O)OC)c4)cc3)c2n1 [Example 19, 7,8-Dihydro-9-[4-{N-[2-(3-methoxycarbonylmethylphenyl-1-yl)oxyethyl]-N-methylamino}methylbenzyl]-2-(2-methoxyethoxy)-8-oxoadenine]",51.5
